Reference: patent publication US9227968B2, “Method of treatment or prophylaxis of inflammatory pain” (Novartis AG, priority 2006, dated 2016)
Entries after “also recorded” stand apart in the source; their conditions may differ.

What was measured:
[1] = Solubility of test articles in the dosing vehicle (Example 3); settings: at 10 mg/kg (2 mL/kg, NaCl 0.9%/DMSO 50/50)
[2] = system: monoarthritic rats; assay: Paw pressure test (vocalization threshold) in monoarthritic rats (intraarticular FCA); type: in vivo, rat; settings: for antihyperalgesic effect in model of monoarthritis (overall): i.p. 0.1, 1 and 10 mg/kg
Experimental: Experimentation was done blindly using the block method with randomization. Unilateral monoarthritits was induced by an intraarticular injection of FCA (0.05 ml) into the tibio tarsial cavity of the right hindpaw of the rat under volatile anaesthetic (5% isofluorane). Fourteen days later, drugs were intraperitoneally given as a single administration. Pain reaction thresholds (vocalization or struggle) were measured using the paw pressure test before induction of monoarthritis, just before drug injections and 15 min, 30 min, 45 min, 1 h, 1 h 30, 2 h and 3 h after drug injections. Pressure was gradually applied to the injected hindpaw of the rat (tibio tarsial articulation) and pain reaction thresholds were determined as the pressure (g) required to elicit struggle or vocalization.
Results were expressed as pressure (g) which induces pain reaction (mean+/−SEM). The cut-off value corresponds to the maximum pressure that the apparatus allows (750 g). Data were analyzed by a two-way analysis of variance (ANOVA) to compare time-course scores. These analyses were followed by a Tukey test when the F-value was significant. The significance level was p<0.05.

[3] = system: ipsilateral (inflamed) hindpaw of the FCA-rat model of inflammatory pain; assay: Paw Pressure Test, FCA-rat model of inflammatory pain (Example 1), ipsilateral hindpaw; type: in vivo; settings: single i.p. bolus doses ~7-70 mg/kg (estimated doses)
Experimental: Single bolus doses of PD-123,319 were administered by the i.p. route to rats with FCA-induced unilateral hindpaw inflammation, a rat model of inflammatory pain. Anti-hyperalgesic (pain-relieving) efficacy was assessed using the Paw Pressure Test, a test which involves the application of noxious pressure to the inflamed hindpaw.
Following i.pl. […] The ability of single bolus doses of PD-123,319 (˜7-70 mg/kg) or vehicle to alleviate mechanical hyperalgesia in the ipsilateral (inflamed) hindpaw was assessed using the Paw Pressure Test (PPT).

[4] = system: FCA-rats; assay: Behavioural observations in FCA-rats; type: in vivo, rat; settings: single bolus: EMA500 1-100 mg/kg i.p., EMA600 1-30 mg/kg i.p., morphine 0.5 mg/kg
Source text: The animals were monitored for visible and audible signs of distress throughout the testing period. The visible signs of distress included behavioural changes such as complete immobility, movement with abnormal gait, agitation, aggression, wet dog shakes, excessive grooming, restlessness with constant movement, repeated sudden movements or staring.

[5] = system: ipsilateral hindpaw volume of FCA-rats; assay: Paw volume measurement in FCA-rats (water displacement); type: in vivo, rat; settings: 3 h post-dosing, single bolus doses tested
Experimental: Paw volume was assessed using displacement of water by the hindpaw to indicate the paw volume. These measurements were undertaken for both the ipsilateral and contralateral hindpaws prior to and 5 days after i.pl. FCA administration and prior to and 3 h post-dosing.

[6] = system: contralateral (non-inflamed) hindpaw of FCA-rats; assay: Paw Pressure Test (PPT) in FCA-rats (Example 2), antinociception in contralateral hindpaw; settings: 0.5 mg/kg s.c.; did not reach statistical significance (p>0.05)
[7] = system: ipsilateral (inflamed) hindpaw of FCA-rats; assay: Paw Pressure Test (PPT) in FCA-rats (Example 2), anti-hyperalgesia in ipsilateral hindpaw

## COc1ccc2c(c1OCc1ccccc1)CC(C(=O)O)N(C(=O)C(c1ccccc1)c1ccccc1)C2 (single isomer, unassigned; (+)) [EMA400, (+)-2-(Diphenylacetyl)-1,2,3,4 tetrahydro-6-methoxy-5-(phenylmethoxy)-3-isoquinoline carboxylic acid]
[1]
  solubility issues: Solubility issues were observed
[2]; 1 mg/kg i.p., 15 minutes after the injection
  antihyperalgesic effect: +20%
[2]; 10 mg/kg i.p., 15 minutes after the injection
  antihyperalgesic effect: +40%
[2]; 10 mg/kg i.p., 30 minutes after the injection
  antihyperalgesic effect: significant antihyperalgesic effect
[2]
  antihyperalgesic effect in model of monoarthritis (overall): induce antihyperalgesic effects

## COc1ccc(Cn2cnc3c2CC(C(=O)O)N(C(=O)C(c2ccccc2)c2ccccc2)C3)cc1C (stereo not drawn) [EMA300, 1-(3-methyl-4-methoxyphenyl)-methyl-5-diphenylacetyl-4,5,6,7-tetrahydro-1H-imidazo[4,5-c]pyridine-6-carboxylic acid]
[2]; 0.1 mg/kg i.p., 15 and 30 minutes after drug injection
  antihyperalgesic effect: +6%
[2]; 1 mg/kg i.p., 15 and 30 minutes after drug injection
  antihyperalgesic effect: +22%
[2]; 10 mg/kg i.p., 15 and 30 minutes after drug injection
  antihyperalgesic effect: +56%
[2]
  antihyperalgesic effect in model of monoarthritis (overall): dose-dependent antihyperalgesic effect; also recorded: induce antihyperalgesic effects

## Cc1cc(Cn2cnc3c2CC(C(=O)O)N(C(=O)C(c2ccccc2)c2ccccc2)C3)ccc1N(C)C (stereo not drawn) [PD-123,319, 1-(4-Dimethylamino-3-methylphenyl)methyl-5-diphenylacetyl-4,5,6,7-tetrahydro-1H-imidazo[4,5-c]-pyridine-6-carboxylic acid]
[3]
  relief of mechanical hyperalgesia in the ipsilateral (inflamed) hindpaw: dose-dependent relief of mechanical hyperalgesia

## CN1CC[C@]23c4c5ccc(O)c4O[C@H]2[C@@H](O)C=C[C@H]3[C@H]1C5 [morphine]
[4]
  adverse behavioural effects: did not produce adverse behavioural effects
[2]; morphine 5 mg/kg i.p., compared to pre-induction values
  antinociceptive effect (vocalization threshold): significant increase in the vocalization threshold
[5]
  effect on ipsilateral hindpaw volume: did not alter ipsilateral hindpaw volumes; also recorded: unaffected
[6]
  antinociceptive effect in the contralateral hindpaw: small antinociceptive effect
[7]; 0.5 mg/kg s.c. single bolus
  duration of action (anti-hyperalgesic response): 2 to 3 h
[7]; 0.5 mg/kg s.c. single bolus, post-dosing
  time of peak anti-hyperalgesic response: 0.5 h
[7]; 0.5 mg/kg s.c., 0.5 h post-dosing
  reversal of FCA-induced mechanical hyperalgesia: fully reversed FCA-induced mechanical hyperalgesia
[7]; 0.5 mg/kg s.c., 0.5 h post-dosing, pre-dosing 63.7 (±2.5) g
  mean (±SEM) PPT at the time of peak effect, ipsilateral hindpaw: 115.0 (±10.6) g
